Patent US12493042B2, “Molecules and methods for iterative polypeptide analysis and processing” (priority 2013, dated 2025)

Tests used:
[1] = target: T1, peptides (Thermus thermophilus, UniProt Q5SGX2, A229N/A231G/F152V/F205A/F336A/G338T/H142N/H143G/H212A/H232D/H287G/I228V/K234Y/K289N/L100D/L154K/L165D/L303D/L340G/M230E/W153G/Y257T); assay: Binding of Phe NAAB mutant to peptides compared with wild-type protein
T1 construct: a truncated version of wild-type Thermus Thermophilus PheRS (residues 86-350)
T1 sequence (Q5SGX2 other isoform, or with tags, fused parts or gaps with the stated changes): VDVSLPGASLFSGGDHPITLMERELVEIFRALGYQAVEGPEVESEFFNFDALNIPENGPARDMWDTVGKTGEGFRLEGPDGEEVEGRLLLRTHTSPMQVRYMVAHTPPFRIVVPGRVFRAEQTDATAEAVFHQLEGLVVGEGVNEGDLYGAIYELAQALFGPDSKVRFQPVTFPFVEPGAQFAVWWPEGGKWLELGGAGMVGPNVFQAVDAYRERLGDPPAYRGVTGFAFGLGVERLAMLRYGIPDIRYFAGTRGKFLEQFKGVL

[2] = target: Edmanase (Edman degradation enzyme; Trypanosoma cruzi cruzain variant C25G/G65S/A138C/L160Y, SEQ ID NO: 29) (Trypanosoma cruzi, UniProt P25779, A260C/A295H/A296K/C147G/E217T/G187S/G216A/L282Y/N191D/Q141S/Q281S/S151A); type: biochemical; settings: Ed-X-AMC (PITC-derivatized) substrate; 30 degrees; 1 nM-100 nM enzyme; excitation 370 nm, emission 460 nm
Description: (§1) A synthetic gene containing the Edman degradation enzyme was purchased from GenScript. The gene encoded a modified version of the cruzian enzyme of T. cruzi having the following substitution mutations: C25G, G65S, A138C, and L160Y.
(§2) The gene was inserted between an NdeI andan XhoI site in a pet42(a) (Novagen) expression vector and transformed into E. coli, BL-21(De3) chemically competent cells. Protein was then over-expressed following Studier's auto-induction protocol. Bacterial cells were harvested by centrifugation of the cell culture at 5000 rpm and 4° C. for 10 minutes. Cells were then suspended in 1×PBS with 10% glycerol and 6M guanidine chloride, pH 7.4. Cells were then lysed by sonication (15 seconds at 20% power, 8 times on ice). The cell lysate was centrifuged at 18000 rpm, 4 degrees for 20 minutes. The supernatant was then filtered through a 0.2 μm cellulose acetate filter. The filtered lysate was loaded onto a 5 mL HisTrap (Ni-NTA) column and washed with 5 column volumes of binding buffer (50 mM Tris-HCl, 150 mM NaCl, 6M guanidine chloride, 25 mM imidazole). Bound protein was then eluted in 50 mM Tris-HCl, 150 mM NaCl, 6M guanidine chloride, 500 mM imidazole. Purified fractions were prepared for SDS-PAGE analysis by mixing 2 parts sample with 1 part 4× loading dye. Samples were analyzed on 16% SDS-PAGE precast gels, and visualized by Coomassie staining. The purified protein was then refolded by successive, overnight dialyses into 1×PBS containing 5M, 3M, 1M, 0.5M, and 0M guanidine chloride. Protein concentration was determined using the calculated molar extinction coefficient and measuring the A280 on an ND-8000 spectrophotometer (Thermo Fisher Scientific).
(§3) Single amino acid, aminomethylcoumarin (AMC) containing compounds were obtained from BAChem (Bubendorf, Switzerland). These included Arg-AMC, Asn-AMC, Phe-AMC, Met-AMC, Ala-AMC, and Pro-AMC. Phenylisothiocyanate (PITC) was purchased from Thermo-scientific and coupled to the N-terminus of each substrate by incubating for 10 minutes at room temperature in a 100 μL solution of acetonitrile:pyridine:water (10:5:3) with 5 μL of PITC. The derivatized substrate was then dried by rotary evaporation and suspended in 250 μL of 1× Phosphate Buffered Saline (PBS). Inhibitor compound, 1-(2-anilino-5-methyl-1,3-thiazol-4-yl)-ethanone, was ordered from Sigma-Aldrich (St. Louis, MO).
(§4) The ability of the Edman degradation enzyme to perform N-terminal cleavage on six substrates of the form Ed-X-AMC, where Ed denotes the Edman reagent, X is an amino acid from the set (Ala, […], Phe, Met, Pro, Arg), and AMC is the fluorogenic […] group was characterized. Cleavage of the X-AMC bond was monitored by the appearance of fluorescence (FIG. 6).
(§5) All kinetic measurements were performed in a 96-well corning plate on a BioTek Synergy2 plate reader at 30 degrees. Reactions were started by adding 5-20 μL of purified enzyme to 100 μL of 10 mM substrate solution. Final enzyme concentration was between 1 nM and 100 nM, depending on the experiment. Fluorescence of the cleaved product was measured by exciting at 370 nm (30 second intervals for 1-10 hours) and monitoring emissions at 460 nm. A standard curve using AMC from Invitrogen was referenced quantitate the amount of product formation.

[3] = target: N-terminal amino acid of peptides; assay: Biolayer interferometry binding assays between peptides and purified NAABs; settings: 1×PBS; dissociation rate constant divided by association rate constant, 1:1 model; read-out: Measured Affinity Constants
Description: Real time binding assays between peptides and purified NAABs were performed using biolayer interferometry on a Blitz system (Fortebio, Menlo Park, CA). This system monitors interference of light reflected from the surface of a fiber optic sensor to measure the thickness of molecules bound to the sensor surface. Sensors coated with peptides were allowed to bind to the NAABs in 1×PBS at several different protein concentrations. Binding kinetics were calculated using the Blitz software package, which fit the observed binding curves to a 1:1 binding model to calculate the association rate constants. NAABs were allowed to dissociate by incubation of the sensors in 1×PBS. Dissociation curves were fit to a 1:1 model to calculate the dissociation rate constants. Binding affinities were calculated as the kinetic dissociation rate constant divided by the kinetic association rate constant.
Each square in the binding matrix represents the binding affinity for a single NAAB with an N-terminal amino acid as measured by biolayer interferometry. Each row in the matrix contains all the binding data for a single NAAB, and each column contains the binding data for a single N-terminal amino acid (shown by single-letter code).

[4] = target: T2, Edmanase (Edman degradation enzyme, modified cruzain) (Trypanosoma cruzi, UniProt P25779, A260C/C147G/G187S/L282Y); type: biochemical; settings: PITC-derivatized X-AMC substrate, 30 degrees, excitation 370 nm, emission 460 nm
T2 construct: His tag; made in house; host or cells: E. coli BL-21(De3), pet42(a)
Description: as §3, with “(PBS).” for “(PBS). Inhibitor compound, 1-(2-anilino-5-methyl-1,3-thiazol-4-yl)-ethanone, was ordered from Sigma-Aldrich (St. Louis, MO).”
as §4, §5

[5] = system: Cc1cc(=O)oc2cc(NC(=O)[C@H](CCCNC(=N)N)NC(=S)Nc3ccccc3)ccc12; assay: purified protein, by the assay type; type: biochemical, Trypanosoma cruzi; settings: other: Ed-X-AMC (PITC-derivatized) substrate; 30 degrees; 1 nM-100 nM enzyme; excitation 370 nm, emission 460 nm; pH 7.4; 30.0 °C
Description: as §1, §2, §3, §4, §5

[6] = system: Cc1cc(=O)oc2cc(NC(=O)[C@H](Cc3ccccc3)NC(=S)Nc3ccccc3)ccc12; assay: purified protein, by the assay type; type: biochemical, Trypanosoma cruzi; settings: other: Ed-X-AMC (PITC-derivatized) substrate; 30 degrees; 1 nM-100 nM enzyme; excitation 370 nm, emission 460 nm; pH 7.4; 30.0 °C
Description: as §1, §2, §3, §4, §5

## N[C@@H](Cc1ccccc1)C(=O)O [Phenylalanine]
[1]
  binding to peptides compared to the wild-type protein: Tighter binding

## Cc1cc(=O)oc2cc(NC(=O)[C@H](CCCNC(=N)N)NC(=S)Nc3ccccc3)ccc12 [Arginine]
[2]
  Kcat: 0.087 s⁻¹

## CSCC[C@H](NC(=S)Nc1ccccc1)C(=O)Nc1ccc2c(C)cc(=O)oc2c1 [Methionine]
[2]
  Kcat: 0.54 s⁻¹
  Km: 272 µM

## Glutamate
[3]
  Kd: 2120 nM

## C[C@H](N)C(=O)O [Alanine]
[4]
  Kcat: 0.55 s⁻¹
  Km: 21.3 µM

## Edmanase (Edman degradation enzyme; Trypanosoma cruzi cruzain variant C25G/G65S/A138C/L160Y, SEQ ID NO: 29) (Trypanosoma cruzi; A260C/A295H/A296K/C147G/E217T/G187S/G216A/L282Y/N191D/Q141S/Q281S/S151A)
[5]
  Km: 167.8 µM
[6]
  Km: 122.8 µM
  kcat: 0.47 s⁻¹
  kcat/Km: 3800 M⁻¹ s⁻¹

## O=C(O)[C@@H]1CCCN1 [Proline]
[4]
  Kcat: 0.0014 s⁻¹
  Km: 252 µM
